The text below walks through data of article PMC12794186, “Covalent Alkynylpyridopyrimidinones Targeting Cysteine 775 of the Epidermal Growth Factor Receptor Overcome Resistance to Current Therapies” (Journal of Medicinal Chemistry, 2025).

Molecules are shown by their SMILES. Read-outs that look alike come from different tables or passages of the source.

One test concerns the target T1, wild-type EGFR (WT-EGFR) (Homo sapiens, UniProt P00533).
T1 construct: made in house; host or cells: SF9 insect cells (MultiBac)
The test is described as follows: TR-FRET fluorescent probe displacement assay. It is filed as binding. Here is the method: Compounds (dissolved to 100 mM in DMSO) were dispensed into black low volume 384 well assay plates (Corning) over a final concentration range of 100,000, 30,000, 10,000, 3000, 1000, 300, 100, 30, 10, and 3 nM using an Echo 550 (Labcyte). Positive control compound and DMSO as a negative control were dispensed into the first and last well, respectively. Each well was backfilled with DMSO to a final volume of 200 nL, resulting in final assay DMSO concentrations of 1%. […] The data were analyzed using Graphpad Prism/Dotmatics Studies Software. Assays conducted in technical replicate and repeated as a biological duplicate.
(Time-resolved FRET reads energy transfer from a long-lived donor to a nearby acceptor.)

The target of another test is mLTC-EGFR (Homo sapiens, UniProt P00533, C797S/L858R/T790M). The experiment in a line: Intact protein mass spectrometry, covalent adduct formation. The test is classed as binding. The note with it: for covalent adduct formation, in words: intact protein mass spectrometry; for Protein adduct formation: adduct stoichiometry by intact protein mass spectrometry.
In test [1] the test system is EGFR phosphorylation (Tyr1068) in H1975 (L858R, T790M) cells. The experiment in a line: HTRF cellular EGFR phosphorylation. The test is classed as cell-based. The settings on record: Homo sapiens, NCI-H1975; read-out: pEGFR IC50 by HTRF. Here is the method: Cells were plated at 20,000 cells per well in 96-well plates and placed at 37 °C with 5% CO2. Compounds were reconstituted in DMSO. Once adhered (after 24 h), cells were treated with compounds at a final concentration of 0.1% DMSO in media. Compounds were added to duplicate wells and incubated 37 °C for 3 h with 5% CO2. For A431 cells 0.5 h before the end of incubation; 100 ng/mL of EGF (Thermo Fisher, Cat. No. PHG0311) was added to all compound-treated cells as well as control. Compound and media were removed from the cells, and then 50 μL of HTRF lysis buffer was added (lysis buffer was diluted from 4× stock to 1× in deionized (DI) water, with 1% blocking agent also added). Cells were lysed on a plate shaker (2000 rpm) for 30 min at room temperature. pEGFR expression was assessed using the Human Phospho-EGFR (Tyr1068) cellular detection kit (Revvity, Cat. No. 64EG1PEH). Total EGFR expression was monitored using the Human Total EGFR cellular detection kit (Revvity, Cat. No. 64NG1PEH) as per the manufacturer’s instructions. […] Results were calculated as the ratio of pEGFR/total EGFR and then the percentage of 0 μM control.

The test system is the same in test [2]. The test is described as follows: Western blot of EGFR phosphorylation. It is filed as cell-based. (In general: Immunoblotting shows a protein as a band on a membrane.)
Description: Cells, seeded on the previous day, were incubated with test compound at the indicated concentrations or DMSO (0.1%) for 4 h. […] Preparation of lysates and Western blotting was performed twice as independent experiments.
Samples were prepared by diluting lysates in PBS to the desired concentration and before adding 4X XT sample buffer. Samples were then denatured at 98 °C for 5 min and then centrifuged to remove the residue. […] The quality of transfer was assessed using Ponceau S Stain (Sigma-Aldrich Cat. No. p7170).
Loading control antibodies were prepared in 5% milk w/v with 1× TBS/T (0.1 v/v) solution at a determined optimum concentration.
Proteins were detected using Clarity ECL substrate (Bio-Rad) and imaged using a Licor Odyssey FC.
The test system of the next test is EGFR. The test is described as follows: Time-course of EGFR modification by mass spectrometry. It is filed as binding. The note with it: within 10 min. The method, then:
Peptides were detected in positive ion mode using electrospray ionization with nebulizer pressure of 35 psi, drying gas flow of 13 L/min and source gas temperature of 290 °C. Sheath gas temperature of 275 °C and gas flow of 12 L/min, capillary voltage of 4000 V and nozzle voltage of 300 V were also applied. Mass spectra were acquired using MassHunter Acquisition software (version B.08.00) over 100–1700 m/z range, at a rate of 5 spectra/s and 200 ms/spectrum, using standard mass range mode (3200 m/z) with extended dynamic range (2 GHz) and collection of both centroid and profile data. MS/MS fragmentation spectra were acquired over 100–3000 m/z range, at a rate of 3 spectra/s and 333.3 ms/spectrum. Acquired MS and MS/MS spectra were analyzed using Agilent MassHunter BioConfirm software (version B.10.00) against known amino acid sequences for EGFR for confirmation of covalent binding at Cys775. For the time course study, 150 μL EGFR (0.15 mg/mL) was incubated with compound 25328 to final concentration of 15 μM in a buffer solution of 20 mM Tris pH 8, 150 mM NaCl, 4% glycerol, 1 mM TCEP, 1% DMSO. […] Intact protein analysis perform as detailed above.

The target in test [3] is recombinant doubly mutated EGFR L858R, T790M kinase domain (mLT-EGFR) (Homo sapiens, UniProt P00533, L858R/T790M). The experiment in a line: Kinetic analysis (AssayQuant). The test is classed as biochemical. The note with it: for Ki: read-out: KI app. Here is the method:
Measurement of K I, K inact and K inact/K I was carried out by AssayQuant Technologies inc.

For the next test, the system named is BAF EGFR L858R cells. The settings on record: BAF EGFR cell line; published compound, reference number not given; cited from earlier work.
For test [4], the system named is BAF EGFR L858R/C775S cells. The note with it: BAF EGFR cell line; published compound, reference number not given; cited from earlier work.
Setting [5] is: TR-FRET, read-out: WT-EGFR IC50.
[6] abbreviates: supplementary csv, read-out: WT pIC50 (converted).
Where [7] appears, read: TR-FRET, n > 3, read-out: WT-EGFR IC50.
Setting [8] is: TR-FRET, n > 3, read-out: WT-EGFR pIC50 ± std dev (converted).

In the case of `C#Cc1cc(-c2cnn3ccccc23)nc(Nc2ccccc2)n1` [Compound 2, 4-Ethynyl-N-phenyl-6-(pyrazolo[1,5-a]pyridin-3-yl)pyrimidin-2-amine], the values for the IC50 on wild-type EGFR (WT-EGFR) (setting [5]) and at wild-type EGFR (WT-EGFR) (setting [6]) were 48000 ± 16000 nM and 50100 nM, respectively. Besides, on mLTC-EGFR, the “covalent adduct formation, in words” value was “addition of a single adduct by mass spectrometry and a small amount of double adduct”.

Regarding `C#Cc1cc(=O)n(-c2ccccc2)c2nc(Nc3ccccc3OC)ncc12` [Compound 3, 5-Ethynyl-2-[(2-methoxyphenyl)amino]-8-phenylpyrido[2,3-d]pyrimidin-7-one], the IC50 in test [1] was greater than 3000 nM. In addition, the “inhibition of pEGFR (Western blot)” value in test [2] (H1975, 10 μM, 4 h) was “showed inhibition of pEGFR”. Besides, the protein modified result with EGFR was “Over 50%”.

Take `C#Cc1cc(=O)n(-c2ccccc2)c2nc(Nc3ccc(N4CCOCC4)cc3OC)ncc12` [Compound 5, 5-Ethynyl-2-((2-methoxy-4-morpholinophenyl)amino)-8-phenylpyrido[2,3-d]pyrimidin-7(8H)-one]: the IC50 on wild-type EGFR (WT-EGFR) (setting [7]) was 57 nM; on wild-type EGFR (WT-EGFR) (setting [8]) it was 63.1 nM.

One may read the kinact as the maximal first-order rate at which the target is inactivated. Usually kinact/KI stands for the second-order rate constant of inactivation. As to `C#Cc1cc(=O)n(-c2ccccc2)c2nc(Nc3ccc(N4CCOCC4)cc3)ncc12` [Compound 6, 5-Ethynyl-2-((4-morpholinophenyl)amino)-8-phenylpyrido[2,3-d]pyrimidin-7(8H)-one], at wild-type EGFR (WT-EGFR) (setting [7]), the IC50 was found to be 69 nM. The IC50 on wild-type EGFR (WT-EGFR) (setting [8]) is 63.1 nM. In test [3], the kinact worked out at 0.0061 ± 0.00035 s⁻¹, the kinact/KI is 3.7e+08 ± 3.8e+06 M⁻¹ s⁻¹ and the Ki came to 16 ± 1.1 nM.

In the case of `C#Cc1cc(=O)n(-c2ccccc2)c2nc(Nc3ccc(N4CCN(C)CC4)cc3OC)ncc12` [Compound 8, 5-Ethynyl-2-(2-methoxy-4-(4-methylpiperazine-1-ylphenyl)amino)-8-phenylpyrido[2,3-d]pyrimidin-7(8H)-one], the IC50 on wild-type EGFR (WT-EGFR) (setting [7]), on wild-type EGFR (WT-EGFR) (setting [8]) and on wild-type EGFR (WT-EGFR) (setting [6]) was 100 nM throughout.

With `C#Cc1cc(=O)n(-c2ccccc2)c2nc(Nc3ccc(N4CCN(C)CC4)cc3)ncc12` [Compound 9, 5-Ethynyl-2-((4-(4-methylpiperazin-1-yl)phenyl)amino)-8-phenylpyrido[2,3-d]pyrimidin-7(8H)-one], the IC50 at wild-type EGFR (WT-EGFR) (setting [7]) was determined as 77 nM. Also, the IC50 on wild-type EGFR (WT-EGFR) (setting [8]) was 79.4 nM. Moreover, in test [3], the kinact worked out at 0.02 ± 0.0041 s⁻¹, the kinact/KI came to 8.2e+08 ± 8.3e+06 M⁻¹ s⁻¹ and the Ki worked out at 24 ± 5.2 nM.

Consider `C#Cc1cc(=O)n(-c2ccccc2)c2nc(Nc3ccc(N(C)C(=O)COC)cc3OC)ncc12` [Compound 10, N-(4-((5-Ethynyl-7-oxo-8-phenyl-7,8-dihydropyrido[2,3-d]pyrimidin-2-yl)amino)-3-methoxyphenyl)-2-methoxy-N-methylacetamide], for which, on wild-type EGFR (WT-EGFR) (setting [7]), the IC50 came to 3300 nM. Moreover, the IC50 at wild-type EGFR (WT-EGFR) (setting [8]) was 3160 nM. Moreover, in test [3], the kinact came out at 0.0035 ± 0.00072 s⁻¹, the inactivation efficiency (kinact/KI) turned out to be 1.8e+07 ± 480000 M⁻¹ s⁻¹ and the Ki was 200 ± 45 nM.

With `C#Cc1cc(=O)n(-c2ccccc2)c2nc(Nc3ccc(N(C)C(=O)CCOC)cc3OC)ncc12` [Compound 11, N-(4-((5-Ethynyl-7-oxo-8-phenyl-7,8-dihydropyrido[2,3-d]pyrimidin-2-yl)amino)-3-methoxyphenyl)-3-methoxy-N-methylpropanamide], the IC50 is 4100 nM at wild-type EGFR (WT-EGFR) (setting [7]) and 3160 nM at wild-type EGFR (WT-EGFR) (setting [8]).

On to `C#Cc1cc(=O)n(-c2ccccc2)c2nc(Nc3ccc(N(C)C(=O)CN(C)C)cc3OC)ncc12` [Compound 12, 2-(Dimethylamino)-N-(4-((5-ethynyl-7-oxo-8-phenyl-7,8-dihydropyrido[2,3-d]pyrimidin-2-yl)amino)-3-methoxyphenyl)-N-methylacetamide], for which the IC50 at wild-type EGFR (WT-EGFR) (setting [7]) was 5100 nM. Also, the IC50 on wild-type EGFR (WT-EGFR) (setting [8]) was 5010 nM. Moreover, in test [3], the kinact was 0.0051 ± 0.00061 s⁻¹, the kinact/KI was determined as 3.3e+07 ± 440000 M⁻¹ s⁻¹ and the Ki came to 160 ± 20 nM.

Regarding `C=CC(=O)Nc1cccc(-c2nn(C)c3ncnc(N)c23)c1` [Compound S1], the Protein adduct formation at mLTC-EGFR turned out to be 1.

On to `C#CC(=O)Nc1cccc(-c2nn(C)c3ncnc(N)c23)c1` [Compound S2], for which, on mLTC-EGFR, the Protein adduct formation is given as 1-3.

Molecule `C=CC(=O)NCc1cccc(-c2nn(C)c3ncnc(N)c23)c1` [Compound S3] gave a Protein adduct formation at mLTC-EGFR of 0.

As to `C=CC(=O)NCc1cc(=O)n(-c2ccccc2)c2nc(Nc3ccccc3OC)ncc12` [Compound S4], the Protein adduct formation on mLTC-EGFR amounted to 0.

On to `C#CC(=O)NCc1cc(=O)n(-c2ccccc2)c2nc(Nc3ccccc3OC)ncc12` [Compound S5], for which the Protein adduct formation on mLTC-EGFR is recorded as 1-2.

`C=CC(=O)NCCOc1ccc(-c2nn(C)c3ncnc(N)c23)cc1` [Compound S7] came in with a Protein adduct formation at mLTC-EGFR of 0.

With `C=CC(=O)Nc1ccccc1Oc1ccc(-c2nn(C)c3ncnc(N)c23)cc1` [Compound S8], on mLTC-EGFR, the Protein adduct formation is 0-1.

Regarding `C#CC(=O)Nc1ccccc1Oc1ccc(-c2nn(C)c3ncnc(N)c23)cc1` [Compound S9], at mLTC-EGFR, the Protein adduct formation was 1-4.

For the molecule `COc1ccccc1Nc1ncc2ccc(=O)n(-c3ccccc3)c2n1` [Compound S10], the IC50 is 15800 nM on wild-type EGFR (WT-EGFR) (setting [8]) and 15000 nM on wild-type EGFR (WT-EGFR) (setting [5]).

Turning to `C=Cc1cc(=O)n(-c2ccccc2)c2nc(Nc3ccccc3OC)ncc12` [Compound S11], the IC50 at wild-type EGFR (WT-EGFR) (setting [8]) and at wild-type EGFR (WT-EGFR) (setting [5]) was greater than 100000 nM each time. Also, the “covalent adduct formation, in words” value on mLTC-EGFR is on record as “reduced protein modulation”.

For the molecule `CC#Cc1cc(=O)n(-c2ccccc2)c2nc(Nc3ccccc3OC)ncc12` [Compound S12], the IC50 on wild-type EGFR (WT-EGFR) (setting [8]) and on wild-type EGFR (WT-EGFR) (setting [5]) was greater than 100000 nM in each case. The “covalent adduct formation, in words” value at mLTC-EGFR was “little to no modification”.

For orientation: GI50 means the concentration that inhibits growth by half. `C=CC(=O)Nc1cc(C(=O)Nc2nc3cccc(Cl)c3n2[C@@H]2CCCCN(C(=O)C=C)C2)cs1` [dual C775–C797 inhibitor]: the GI50 in the test on BAF EGFR L858R cells is 10 nM; in test [4], 20 nM.

Consider `C=CC(=O)Nc1cc(Nc2nccc(-c3cn(C)c4ccccc34)n2)c(OC)cc1N(C)CCN(C)C` [osimertinib, reference compound], for which the “inhibition of EGFR and ERK1/2 phosphorylation (Western blot)” value in test [2] (H1975, 4 h exposure, concentration series) was “inhibition of EGFR and ERK1/2 phosphorylation was evident”.
